Experimental data taken from patent US10953012B2, “Heterocyclic compounds for the inhibition of pask” (BioEnergenix LLC, priority 2011, dated 2021).

Legend:
PASK [1] = target: PASK (Homo sapiens (Human), UniProt Q96RG2); experiment: PAS Kinase FRET Assay; format: biochemical; conditions: TR-FRET assay; read-out: IC50 Kinase Domain
Procedure, shortened: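 Reaction buffer: 50 mM HEPES, 10 mM MgCl2, 1 mM EGTA, 2 mM DTT, 0.01% Tween-20. Test compounds (eleven-point series prepared at 4× final) preceded PASK and substrate/ATP. Reaction ran 2 h at 25 °C in the dark, then stopped. Phospho-ULight peptide detected by Eu-antibody TR-FRET, 665/615 nm ratio.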

PASK [2] = target: PASK (UniProt #Q96RG2; residues 879-1323) (Homo sapiens (Human), UniProt Q96RG2); experiment: PASK ATP Radiochemical Assay; format: biochemical; conditions: 33P-ATP radiochemical assay; read-out: IC50 Kinase Domain
Chain of PASK (UniProt #Q96RG2; residues 879-1323) (Homo sapiens (Human), UniProt Q96RG2) (Q96RG2 879-1323): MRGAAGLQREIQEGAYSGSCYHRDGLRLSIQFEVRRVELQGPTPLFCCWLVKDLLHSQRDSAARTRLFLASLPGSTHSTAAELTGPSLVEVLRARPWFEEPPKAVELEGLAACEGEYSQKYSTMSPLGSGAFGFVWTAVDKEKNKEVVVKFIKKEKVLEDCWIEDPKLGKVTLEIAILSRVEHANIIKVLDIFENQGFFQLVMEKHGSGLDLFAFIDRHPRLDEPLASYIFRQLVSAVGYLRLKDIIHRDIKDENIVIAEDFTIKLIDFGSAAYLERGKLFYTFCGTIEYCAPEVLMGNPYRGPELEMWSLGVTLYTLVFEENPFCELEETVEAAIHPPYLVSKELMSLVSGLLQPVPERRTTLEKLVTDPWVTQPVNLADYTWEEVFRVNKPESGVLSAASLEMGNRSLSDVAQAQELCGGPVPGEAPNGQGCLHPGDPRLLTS
Procedure, shortened: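 Radiometric kinase assay: GST-tagged PASK (5 nM final) from insect cells with Myelin Basic Protein (20 μM) in HEPES pH 7.5 buffer, 1% DMSO; reaction started with ^33P-ATP, 120 min at room temperature. Substrate phosphorylation captured on P81 paper and read by scintillation counting.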

CK2a2 = CK2a2 (Homo sapiens (Human), UniProt P19784); experiment: Biochemical Assay for CK2 Activity; conditions: 33P-ATP radiochemical assay; read-out: IC50 CK2 a2
Chain of CK2a2 (P19784 whole entry): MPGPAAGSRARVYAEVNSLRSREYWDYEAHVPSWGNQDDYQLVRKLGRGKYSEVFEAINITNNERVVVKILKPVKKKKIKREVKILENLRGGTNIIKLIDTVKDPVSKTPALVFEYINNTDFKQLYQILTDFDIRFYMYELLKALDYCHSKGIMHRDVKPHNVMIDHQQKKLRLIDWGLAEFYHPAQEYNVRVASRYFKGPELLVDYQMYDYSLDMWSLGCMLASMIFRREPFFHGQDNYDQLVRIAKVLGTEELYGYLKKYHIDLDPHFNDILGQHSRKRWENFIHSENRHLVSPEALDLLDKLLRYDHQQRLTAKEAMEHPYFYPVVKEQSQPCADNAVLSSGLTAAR
Procedure, shortened: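 GST-tagged full-length human CK2a2 from insect cells (1.2 nM) with 20 μM RRRDDDSDDD peptide, in pH 7.5 HEPES buffer with MgCl2, DTT and 1% DMSO. Reactions started with ³³P-ATP were run for 120 min at room temperature. Substrate phosphorylation was measured by P81 phosphocellulose filter binding and scintillation counting.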

Measured: IC50

Chain of PASK (Homo sapiens (Human), UniProt Q96RG2) (Q96RG2 999-1251): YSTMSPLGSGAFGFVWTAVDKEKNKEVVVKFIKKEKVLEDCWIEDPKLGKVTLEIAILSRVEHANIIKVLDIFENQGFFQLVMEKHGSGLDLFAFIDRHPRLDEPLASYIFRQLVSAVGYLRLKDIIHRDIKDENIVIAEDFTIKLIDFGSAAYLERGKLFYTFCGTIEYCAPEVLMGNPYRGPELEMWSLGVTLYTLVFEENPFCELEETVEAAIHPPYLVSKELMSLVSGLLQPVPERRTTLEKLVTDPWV

Nc1nn2c(=O)cc(-c3ccc(Cl)cc3)[nH]c2c1-c1ccccn1 [Example 152, 2-Amino-5-(4-chlorophenyl)-3-(pyridin-2-yl)pyrazolo[1,5-a]pyrimidin-7(4H)-one]
≤ 10 µM: all assays above

CC(=O)Nc1nn2c(=O)cc(-c3ccc4c(c3)OCO4)[nH]c2c1-c1ccccn1 [Example 155, N-(5-(Benzo[d][1,3]dioxol-5-yl)-7-oxo-3-(pyridin-2-yl)-4,7-dihydropyrazolo[1,5-a]pyrimidin-2-yl)acetamide]
≤ 10 µM: all assays above

CCNc1nn2c(=O)cc(-c3ccc4c(c3)OCO4)[nH]c2c1-c1ccccn1 [Example 156, 5-(Benzo[d][1,3]dioxol-5-yl)-2-(ethylamino)-3-(pyridin-2-yl)pyrazolo[1,5-a]pyrimidin-7(4H)-one]
≤ 10 µM: all assays above

O=c1cc(-c2ccc3c(c2)OC(F)(F)O3)[nH]c2c(-c3ccccn3)cnn12 [Example 158, 5-(2,2-Difluorobenzo[d][1,3]dioxol-5-yl)-3-(pyridin-2-yl)pyrazolo[1,5-a]pyrimidin-7(4H)-one]
≤ 10 µM: all assays above

Nc1nn2c(=O)cc(-c3ccc4[nH]ncc4c3)[nH]c2c1-c1ccccn1 [Example 159, 2-Amino-5-(1H-indazol-5-yl)-3-(pyridin-2-yl)pyrazolo[1,5-a]pyrimidin-7(4H)-one]
≤ 10 µM: all assays above

O=c1cc(-c2ccc3[nH]ncc3c2)[nH]c2c(-c3ccccn3)cnn12 [Example 160, 5-(1H-Indazol-5-yl)-3-(pyridin-2-yl)pyrazolo[1,5-a]pyrimidin-7(4H)-one]
≤ 10 µM: all assays above

CCc1nn2c(=O)cc(-c3ccc4c(c3)OCO4)[nH]c2c1-c1ccccn1 [Example 161, 5-(Benzo[d][1,3]dioxol-5-yl)-2-ethyl-3-(pyridin-2-yl)pyrazolo[1,5-a]pyrimidin-7(4H)-one]
≤ 10 µM: all assays above

Nc1nn2c(=O)cc(-c3ccc(Cl)cc3F)[nH]c2c1-c1ccccn1 [Example 163, 2-Amino-5-(4-chloro-2-fluorophenyl)-3-(pyridin-2-yl)pyrazolo[1,5-a]pyrimidin-7(4H)-one]
≤ 10 µM: all assays above

O=c1cc(-c2ccc3c(c2)OCO3)[nH]c2c(-c3ncccc3F)cnn12 [Example 164, 5-(Benzo[d][1,3]dioxol-5-yl)-3-(3-fluoropyridin-2-yl)pyrazolo[1,5-a]pyrimidin-7(4H)-one]
≤ 10 µM: all assays above

Nc1nn2c(=O)cc(-c3ccc(F)cc3)[nH]c2c1-c1ccccn1 [Example 171, 2-Amino-5-(4-fluorophenyl)-3-(pyridin-2-yl)pyrazolo[1,5-a]pyrimidin-7(4H)-one]
≤ 10 µM: all assays above

Nc1nn2c(=O)cc(-c3ccc4[nH]nnc4c3)[nH]c2c1-c1ccccn1 [Example 191, 2-Amino-5-(1H-benzo[d][1,2,3]triazol-5-yl)-3-(pyridin-2-yl)pyrazolo[1,5-a]pyrimidin-7(4H)-one]
≤ 10 µM: all assays above

O=c1cc(-c2ccc3[nH]nnc3c2)[nH]c2c(-c3ccccn3)c(O)nn12 [Example 193, 5-(1H-Benzo[d][1,2,3]triazol-5-yl)-2-hydroxy-3-(pyridin-2-yl)pyrazolo[1,5-a]pyrimidin-7(4H)-one]
≤ 10 µM: all assays above
